From paper PMC12833874 (Journal of Medicinal Chemistry, 2025) come the findings set out here.

The structures appear in SMILES notation. Where two headings read alike, the source gives them in different places.

Experiment [1] deals with T1, NOPr (Homo sapiens, UniProt P41146). Put plainly: BRET G-protein activation (GPA) assay, Gαi2, agonist and antagonist mode, Flp-In-NOPr-CHO cells. The experiment is classed as cell-based. The settings on record: for reduction in inhibitory potency from N-Boc congener to fluorescent ligand: 11g to 13g, 11h to 13h and 14h. (In general: BRET reads energy transfer from a luciferase to a nearby fluorophore.)
Experimental: The functional activity of congeners 11a-h was assessed in a bioluminescence resonance energy transfer (BRET) assay measuring NOPr activation of the Gαi2 G protein through release of Gβγ subunits in Flp-In-NOPr-Chinese hamster ovary (CHO) cells, as summarized in Figure a.
Data represent the mean ± SEM of n = 4 experiments performed in duplicate. (a) Illustrative representation of the GPA assayligand-induced receptor activation causes G protein dissociation, releasing a Venus-tagged Gβγ (acceptor) to interact with a membrane-localized c-terminus of G protein-coupled receptor kinase 3 (masGRK3ct) fused to a renilla luciferase enzyme (RLuc8) (donor). […] After a 10 min incubation with the R-Luc substrate coelenterazine and NOPr ligands, luminescence was measured to quantify GPA as a BRET ratio between acceptor λem 535 nm/donor λem 475 nm.
Flp-In CHO cells stably expressing SNAP-NOPr were transiently transfected with Gαi2 (2 μg), Gβ1-Venus (156–259)­(1 μg), Gγ2-Venus­(1–155)­(1 μg), and masGRK3ct-RLuc8 (1 μg) using polyethylenimine (PEI) in a 1:6 DNA/PEI ratio. The mixture was suspended in sterile NaCl, vortexed, and then incubated (10 min, RT), before being added to the cells in fresh antibiotic media DMEM (7 mL) supplemented with 10% FBS (v/v) and penicillin (50 units·mL^–1)- streptomycin (50 μg.mL^–1).
Cells were then incubated with coelenterazine H (NanoLight Technology) (10 μL/well, 50 μM, 5 min, RT) before ligands were added to the 96-well plate with final ligand concentrations ranging from (10 μM-0.01 nM). […] Cells were incubated in the plate reader, and luminescence was read using dual emission detection at 475 nm (Rluc8 Donor) and 535 nm emission (BRET signal) at 10 and 30 min. Plates were read on a PHERAstar (BMG Lab Tech), and data were exported through MARS and analyzed using Prism (GraphPad, Version 10).

A further experiment has as its target T2, SNAP-NOPr (Homo sapiens, UniProt P41146).
T2 construct: expressed in transfected cells
The experiment is described as follows: Confocal imaging of fluorescent ligand binding, live FlpIn CHO cells stably expressing SNAP-NOPr. The experiment is classed as cell-based. Particulars: for fluorescent ligand binding (confocal images): 1 μM, 30 min at 37 °C, live cells. As for the experimental part: To first assess whether the library of fluorescent ligands (13a-h and 14h) can specifically label the NOPr, single time point confocal images of live FlpIn CHO cells stably expressing SNAP-NOPr were captured. Cells were incubated with fluorescent ligands 13a-h and 14h (1 μM) to assess the fluorescent ligand binding.
3 Single time point confocal images of live FlpIn CHO cells stably expressing SNAP-NOPr. Cells were labeled with SNAP-AF488 (cyan) to visualize SNAP-NOPr expression (a–d) and incubated for 30 min at 37 °C with fluorescent ligands 13e–h (1 μM) (magenta) to visualize fluorescent ligand binding (e-h).
For all experiments, live cell single time point confocal images were captured using a Zeiss Cell Discoverer 7 LSM 900 high-content automated confocal microscope. Two images per well were captured using a 10× objective and the Cy5 channel (650 λex, 673 λem), the AF488 (495λex, 520 λem) channel, and the CFP (433λex, 475 λem) channel. All cells were imaged in an imaging buffer containing (2 mM sodium pyruvate, 145 mM NaCl, 10 mM D-glucose, 5 mM KCl, 1 mM MgSO4·7H2O, 10 mM HEPES, 1.3 mM CaCl2 dihydrate, and 1.5 mM NaHCO3).
Stably expressing SNAP-NOPr FlpIn-CHO cells suspended in DMEM (D6421) (100 μL) were seeded (10,000 cells/well) into 96-well poly-D-lysine (PDL)-coated Greiner black polyester plates. Cells were incubated for 48 h at 37 °C and 5% CO2 prior to imaging.
Before measurement, the media were removed, and cells were washed with 90 μL of imaging buffer. Cells were then incubated with SNAP-AF488 (New England Biolabs) (0.5 μg·mL^–1) in imaging buffer for 30 min at 37 °C. After incubation, the SNAP-AF488 solution was aspirated and cells were rinsed twice with imaging buffer (90 μL). […] Cells were incubated for 30 min at 37 °C and 5% CO2 before the images were captured.

The target in experiment [2] is T1, NOPr. Put plainly: TR-FRET equilibrium saturation binding, Lumi4Tb-SNAP-NOPr CHO membranes. A general note: In TR-FRET formats the signal depends on donor and acceptor labels being close together.
Experimental: The levels of specific binding (total – nonspecific) were calculated and used to determine the dissociation constant (K D) as a measure of affinity.
For 13g-h, the homogeneous TR-FRET (HTRF) ratio [(acceptor λem (665 nM)/donor λem (620 nM) × 10000)] is plotted against ligand concentration (nM) for the total binding (solid circle) and nonspecific binding (NSB) (hollow circle). […] For end point saturation binding assays, data represent the mean ± SEM of n = 3 experiments performed in duplicate, and for kinetic binding studies, all data represent the mean of n = 3 experiments.
All ligands were prepared in TR-FRET buffer, consisting of Hanks’ Balanced Salt Solution (Sigma-Aldrich H6648) (KCl 5 mM, KH2PO4 0.4 mM, NaHCO3 4 mM, NaCl 137 mM, Na2HPO4 0.3 mM), Pluronic-F127 (0.02% w/v), DMSO (1% v/v), and glucose (1 mg.mL^–1), adjusted to pH 7.4. Membrane aliquots were thawed on ice prior to use, and membrane suspensions [membrane (0.05 μg.μL^–1), Gpp­(NH)p (100 μM), and saponin (50 μg.mL^–1)] were prepared in TR-FRET buffer. […] Measurements were made in low-binding 384-well optiplates (PerkinElmer) on a PHERAstar (BMG Labtech) plate reader using the HTRF module [337 nm excitation with dual emission detection at 620 nm (terbium cryptate donor) and 665 nm emission (fluorescent ligand acceptor)] at a focal height of 11.4 mm. […]
Setting [3] is: IC50, antagonist mode, inhibition of EC80 concentration of N/OFQ, n = 4 in duplicate.
The mark [4] stands for this setting: NOP pIC50 ± SEM, supplementary csv, GPA assay antagonist mode.
Setting [5] is: pIC50 ± SEM, antagonist mode, inhibition of EC80 concentration of N/OFQ, n = 4 in duplicate.
[6] abbreviates: NOP IC50 (nM), supplementary csv, GPA assay antagonist mode.
Setting [7] is: antagonist mode, inhibition of EC80 concentration of N/OFQ, n = 4 in duplicate, read-out: IC50 (converted).
[8] abbreviates: antagonist mode, inhibition of EC80 concentration of N/OFQ, n = 4 in duplicate, read-out: pIC50 ± SEM (converted).
Where [9] appears, read: supplementary csv, GPA assay antagonist mode, read-out: NOP pIC50 ± SEM (converted).
Where [10] appears, read: supplementary csv, GPA assay antagonist mode, read-out: NOP IC50 (converted).

T2 sequence (P41146 whole entry): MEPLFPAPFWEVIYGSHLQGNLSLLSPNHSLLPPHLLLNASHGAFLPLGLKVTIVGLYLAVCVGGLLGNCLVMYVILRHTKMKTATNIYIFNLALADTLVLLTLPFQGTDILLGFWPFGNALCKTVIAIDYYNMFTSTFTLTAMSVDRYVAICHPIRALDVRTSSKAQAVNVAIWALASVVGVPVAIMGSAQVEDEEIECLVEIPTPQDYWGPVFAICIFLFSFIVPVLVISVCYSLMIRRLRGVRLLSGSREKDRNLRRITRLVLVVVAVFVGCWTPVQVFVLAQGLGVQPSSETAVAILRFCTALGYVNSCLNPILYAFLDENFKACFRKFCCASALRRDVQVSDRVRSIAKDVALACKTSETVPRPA
T1 sequence (P41146 whole entry): as above

Turning to `C[C@H](NC(=O)OC(C)(C)C)C(=O)N1CCC[C@@H]1C(=O)NCCCN1CCC2(CC1)OCc1ccccc12` [11a, tert-Butyl ((S)-1-((R)-2-((3-(3H-Spiro[isobenzofuran-1,4′-piperidin]-1′-yl)propyl)carbamoyl)pyrrolidin-1-yl)-1-oxopropan-2-yl)carbamate], the results for the IC50 at NOPr [1] (setting [3]), on NOPr [1] (setting [4]) and on NOPr [1] (setting [5]) were 11700 nM, 11700 nM and 12600 nM, respectively.
In the case of `CC(C)(C)OC(=O)NCCC(=O)N1CCC[C@@H]1C(=O)NCCCN1CCC2(CC1)OCc1ccccc12` [11b, tert-Butyl (R)-(3-(2-((3-(3H-Spiro[isobenzofuran-1,4′-piperidin]-1′-yl)propyl)carbamoyl)pyrrolidin-1-yl)-3-oxopropyl)carbamate], the IC50 on NOPr [1] (setting [3]) was 7800 nM; on NOPr [1] (setting [6]), 7760 nM; at NOPr [1] (setting [4]), 7760 nM; at NOPr [1] (setting [5]), 7940 nM.
With `CC(C)(C)OC(=O)NCCCC(=O)N1CCC[C@@H]1C(=O)NCCCN1CCC2(CC1)OCc1ccccc12` [11c, tert-Butyl (R)-(4-(2-((3-(3H-Spiro[isobenzofuran-1,4′-piperidin]-1′-yl)propyl)carbamoyl)pyrrolidin-1-yl)-4-oxobutyl)carbamate], the IC50 is 4900 nM at NOPr [1] (setting [7]), 5010 nM at NOPr [1] (setting [8]) and 4900 nM on NOPr [1] (setting [9]).
For the compound `CC(C)(C)OC(=O)NCCCCC(=O)N1CCC[C@@H]1C(=O)NCCCN1CCC2(CC1)OCc1ccccc12` [11d, tert-Butyl (R)-(5-(2-((3-(3H-Spiro[isobenzofuran-1,4′-piperidin]-1′-yl)propyl)carbamoyl)pyrrolidin-1-yl)-5-oxopentyl)carbamate], the IC50 is 1200 nM at NOPr [1] (setting [7]), 1260 nM at NOPr [1] (setting [8]), 1230 nM on NOPr [1] (setting [10]) and 1230 nM on NOPr [1] (setting [9]).
Regarding `CC(C)(C)OC(=O)NCCOc1cccc(C(=O)N2CCC[C@@H]2C(=O)NCCCN2CCC3(CC2)OCc2ccccc23)c1` [11e, tert-Butyl (R)-(2-(3-(2-((3-(3H-Spiro[isobenzofuran-1,4′-piperidin]-1′-yl)propyl)carbamoyl)pyrrolidine-1-carbonyl)phenoxy)ethyl)carbamate], the IC50 on NOPr [1] (setting [7]) was 370 nM; on NOPr [1] (setting [8]), 398 nM; at NOPr [1] (setting [10]), 372 nM; at NOPr [1] (setting [9]), 372 nM.
Turning to `CC(C)(C)OC(=O)NCCOc1ccc(C(=O)N2CCC[C@@H]2C(=O)NCCCN2CCC3(CC2)OCc2ccccc23)cc1` [11f, tert-Butyl (R)-(2-(4-(2-((3-(3H-Spiro[isobenzofuran-1,4′-piperidin]-1′-yl)propyl)carbamoyl)pyrrolidine-1-carbonyl)phenoxy)ethyl)carbamate], the IC50 on NOPr [1] (setting [7]) was 270 nM; at NOPr [1] (setting [8]), 251 nM; at NOPr [1] (setting [10]), 269 nM; at NOPr [1] (setting [9]) it was 269 nM.
As to `CC(C)(C)OC(=O)NCCOc1cccc(CN2CCC[C@@H]2C(=O)NCCCN2CCC3(CC2)OCc2ccccc23)c1` [11g, tert-Butyl (R)-(2-(3-((2-((3-(3H-Spiro[isobenzofuran-1,4′-piperidin]-1′-yl)propyl)carbamoyl)pyrrolidin-1-yl)methyl)phenoxy)ethyl)carbamate], the IC50 at NOPr [1] (setting [3]) was 20 nM; at NOPr [1] (setting [6]), 19.5 nM; on NOPr [1] (setting [4]) it was 19.5 nM; on NOPr [1] (setting [5]), 20 nM.
Turning to `CC(C)(C)OC(=O)NCCOc1ccc(CN2CCC[C@@H]2C(=O)NCCCN2CCC3(CC2)OCc2ccccc23)cc1` [11h, tert-Butyl (R)-(2-(4-((2-((3-(3H-Spiro[isobenzofuran-1,4′-piperidin]-1′-yl)propyl)carbamoyl)pyrrolidin-1-yl)methyl)phenoxy)ethyl)carbamate], the results for the IC50 on NOPr [1] (setting [3]), on NOPr [1] (setting [4]) and on NOPr [1] (setting [5]) were 5.5 nM, 5.5 nM and 5.01 nM, respectively.
Regarding `CN1/C(=C/C=C/C=C/C2=[N+](CCCCCC(=O)NCCOc3cccc(C(=O)N4CCC[C@@H]4C(=O)NCCCN4CCC5(CC4)OCc4ccccc45)c3)c3ccc(S(=O)(=O)[O-])cc3C2(C)C)C(C)(C)c2cc(S(=O)(=O)[O-])ccc21.[K+]` [13e, Potassium 1-(6-((2-(3-((R)-2-((3-(3H-Spiro[isobenzofuran-1,4′-piperidin]-1′-yl)propyl)carbamoyl)pyrrolidine-1-carbonyl)phenoxy)ethyl)amino)-6-oxohexyl)-3,3-dimethyl-2-((1E,3E)-5-((E)-1,3,3-trimethyl-5-sulfonatoindolin-2-ylidene)penta-1,3-dien-1-yl)-3H-indol-1-ium-5-sulfonate], at SNAP-NOPr, the “fluorescent ligand binding (confocal images)” value is reported as “Binding was observed”.
Still for that read-out and setting: as for `CN1/C(=C/C=C/C=C/C2=[N+](CCCCCC(=O)NCCOc3ccc(C(=O)N4CCC[C@@H]4C(=O)NCCCN4CCC5(CC4)OCc4ccccc45)cc3)c3ccc(S(=O)(=O)[O-])cc3C2(C)C)C(C)(C)c2cc(S(=O)(=O)[O-])ccc21.[K+]` [13f, Potassium 1-(6-((2-(4-((R)-2-((3-(3H-Spiro[isobenzofuran-1,4′-piperidin]-1′-yl)propyl)carbamoyl)pyrrolidine-1-carbonyl)phenoxy)ethyl)amino)-6-oxohexyl)-3,3-dimethyl-2-((1E,3E)-5-((E)-1,3,3-trimethyl-5-sulfonatoindolin-2-ylidene)penta-1,3-dien-1-yl)-3H-indol-1-ium-5-sulfonate], the entry is “Binding was observed”.
In the case of `CN1/C(=C/C=C/C=C/C2=[N+](CCCCCC(=O)NCCOc3ccc(CN4CCC[C@@H]4C(=O)NCCCN4CCC5(CC4)OCc4ccccc45)cc3)c3ccc(S(=O)(=O)[O-])cc3C2(C)C)C(C)(C)c2cc(S(=O)(=O)[O-])ccc21.[K+]` [13h, Potassium 1-(6-((2-(4-(((R)-2-((3-(3H-Spiro[isobenzofuran-1,4′-piperidin]-1′-yl)propyl)carbamoyl)pyrrolidin-1-yl)methyl)phenoxy)ethyl)amino)-6-oxohexyl)-3,3-dimethyl-2-((1E,3E)-5-((E)-1,3,3-trimethyl-5-sulfonatoindolin-2-ylidene)penta-1,3-dien-1-yl)-3H-indol-1-ium-5-sulfonate], the “binding behaviour at the highest concentration tested” value at NOPr [2] (400 nM) was “saturable binding with minimal nonspecific binding”. For the same compound, on NOPr [2] (saturation KD), the “higher affinity of 13h than 13g” value is 5 fold. The “fluorescent ligand binding (confocal images)” value on SNAP-NOPr is “more pronounced binding”. Further, the “reduction in inhibitory potency from N-Boc congener to fluorescent ligand” value at NOPr [1] is at least 20 fold.
For `O=C(CCCCCNC(=O)COc1ccc(/C=C/C2=[N+]3C(=Cc4ccc(-c5cccs5)n4[B-]3(F)F)C=C2)cc1)NCCOc1ccc(CN2CCC[C@@H]2C(=O)NCCCN2CCC3(CC2)OCc2ccccc23)cc1` [14h, (R,E)-N-(3-(3H-Spiro[isobenzofuran-1,4′-piperidin]-1′-yl)propyl)-1-(4-(2-(6-(2-(4-(2-(5,5-Difluoro-7-(thiophen-2-yl)-5H-4λ^4,5λ^4-dipyrrolo[1,2-c:2′,1′-f][1,3,2]diazaborinin-3-yl)vinyl)phenoxy)acetamido)hexanamido)ethoxy)benzyl)pyrrolidine-2-carboxamide], the “specificity of labeling: displacement by SB-612111 / nonspecific labeling” value on SNAP-NOPr (1 μM ligand, SB-612111 1 μM) was “significant nonspecific labeling”. Besides, at NOPr [1], the “reduction in inhibitory potency from N-Boc congener to fluorescent ligand” value was at least 20 fold. Besides, the “functional agonism at the NOPr” value on NOPr [1] (agonist mode, absence of N/OFQ) is “no functional agonism”. Moreover, the IC50 is 130 nM on NOPr [1] (setting [7]), 126 nM at NOPr [1] (setting [8]) and 126 nM on NOPr [1] (setting [10]).
